Columns and labels:
SARS-CoV-2 [1] = test: Phase 2/3 study, Phase 2b Part: SARS-CoV-2 virus titer on Day 4; type: in vivo, human; conditions: for Change from baseline in SARS-CoV-2 virus titer on Day 4: Adjusted mean value by covariance analysis (standard error) / Change from baseline in SARS-CoV-2 virus titer on Day 4: Difference of adjusted mean value from that of placebo group (standard error) / Change from baseline in SARS-CoV-2 virus titer on Day 4: Maximum value / Change from baseline in SARS-CoV-2 virus titer on Day 4: Mean value / Change from baseline in SARS-CoV-2 virus titer on Day 4: Median value / Change from baseline in SARS-CoV-2 virus titer on Day 4: Minimum value: mild/moderate patients, ITT1 population
Procedure: (§1) The primary endpoints of Phase 2b Part were the time-weighted average change in the total score of 12 COVID-19 symptoms per unit time from the start of the first administration (Day 1) to 120 hours (Day 6), and the change from baseline in SARS-CoV-2 virus titer on Day 4, in mild/moderate SARS-CoV-2-infected patients, and the clinical improvement and the antiviral effect of the active drug were confirmed.
(§2) The administration of the active drug is repeated oral administration once a day for 5 days. The 375/125 mg group received 375 mg on Day 1 as a loading dose and 125 mg on Days 2 to 5 as a maintenance dose. The 750/250 mg group received 750 mg on Day 1 as a loading dose and 250 mg on Days 2 to 5 as a maintenance dose.
(§3) The primary efficacy endpoints of Phase 2b Part for mild/moderate SARS-CoV-2-infected patients were the time-weighted average change in the total score of 12 COVID-19 symptoms per unit time from the start of the first administration (Day 1) to 120 hours (Day 6), and the change from baseline in SARS-CoV-2 virus titer on Day 4. The total score of 12 COVID-19 symptoms is the sum of the scores determined by evaluation in four grades (0: none, 1: mild, 2: moderate, 3: severe) in the subject daily records for each of the 12 COVID-19 symptoms (low energy and tiredness, muscle or body aches, headache, chills or shivering, feeling hot or feverish, stuffy and runny nose, sore throat, cough, shortness of breath (difficulty breathing), nausea, vomiting, diarrhea).
(§4) Pairwise comparison was performed between each active drug dose group and the placebo group. […] Pairwise comparison was performed between each active drug dose group and the placebo group.

SARS-CoV-2 [2] = test: Phase 2/3 study, Phase 2b Part: score of 12 COVID-19 symptoms per unit time; type: in vivo, human
Procedure: as §1, §2, §3, §4
The results of classifying the twelve COVID-19 symptoms shown in the above (2-a) into 5 types (acute symptoms, major clinical symptoms, respiratory symptoms, systemic symptoms, and gastrointestinal symptoms) and analyzing the same (ITT population) are shown in the following table. • Acute symptoms: sore throat, cough, feeling hot and feverish • Major clinical symptoms: stuffy and runny nose, sore throat, cough, chills or shivering, feeling hot or feverish • Respiratory symptoms: stuffy and runny nose, sore throat, cough, shortness of breath (difficulty breathing) • Systemic symptoms: low energy and tiredness, muscle or body aches, headache, chills or shivering, feeling hot or feverish • Gastrointestinal symptoms: nausea, vomiting, diarrhea

[3] = ITT population, 375/125 mg group
[4] = ITT population, 750/250 mg group

SMILES: Cn1cnc(Cn2c(=O)[nH]/c(=N\c3cc4cn(C)nc4cc3Cl)n(Cc3cc(F)c(F)cc3F)c2=O)n1 [(6E)-6-[(6-chloro-2-methyl-2H-indazol-5-yl)imino]-3-[(1-methyl-1H-1,2,4-triazol-3-yl)methyl]-1-[(2,4,5-trifluorophenyl)methyl]-1,3,5-triazinane-2,4-dione]
- Proportion of patients with a positive virus titer of 1.1 or more on Day 4 (SARS-CoV-2 [1]; 375/125 mg group): 1.9%
- SARS-CoV-2 virus titer on Day 4 as compared with the placebo group (SARS-CoV-2 [1]; 375/125 mg group and 750/250 mg group, p<0.0001): statistically significantly reduced
- Proportion of patients with a positive virus titer of 1.1 or more on Day 4 (SARS-CoV-2 [1]; 750/250 mg group): 5.4%
- Change from baseline in SARS-CoV-2 virus titer on Day 4: Adjusted mean value by covariance analysis (standard error) (SARS-CoV-2 [1]; 375/125 mg group): −1.49 (0.04)
- Change from baseline in SARS-CoV-2 virus titer on Day 4: Difference of adjusted mean value from that of placebo group (standard error) (SARS-CoV-2 [1]; 375/125 mg group): −0.41 (0.05)
- Change from baseline in SARS-CoV-2 virus titer on Day 4: Maximum value (SARS-CoV-2 [1]; 375/125 mg group): 0.0
- Change from baseline in SARS-CoV-2 virus titer on Day 4: Mean value (SARS-CoV-2 [1]; 375/125 mg group): −1.69
- Change from baseline in SARS-CoV-2 virus titer on Day 4: Median value (SARS-CoV-2 [1]; 375/125 mg group): −1.70
- Change from baseline in SARS-CoV-2 virus titer on Day 4: Minimum value (SARS-CoV-2 [1]; 375/125 mg group): −3.7
- Change from baseline in SARS-CoV-2 virus titer on Day 4: Adjusted mean value by covariance analysis (standard error) (SARS-CoV-2 [1]; 750/250 mg group): −1.49 (0.04)
- Change from baseline in SARS-CoV-2 virus titer on Day 4: Difference of adjusted mean value from that of placebo group (standard error) (SARS-CoV-2 [1]; 750/250 mg group): −0.41 (0.05)
- Change from baseline in SARS-CoV-2 virus titer on Day 4: Maximum value (SARS-CoV-2 [1]; 750/250 mg group): 0.0
- Change from baseline in SARS-CoV-2 virus titer on Day 4: Mean value (SARS-CoV-2 [1]; 750/250 mg group): −1.43
- Change from baseline in SARS-CoV-2 virus titer on Day 4: Median value (SARS-CoV-2 [1]; 750/250 mg group): −1.40
- Change from baseline in SARS-CoV-2 virus titer on Day 4: Minimum value (SARS-CoV-2 [1]; 750/250 mg group): −3.4
- Respiratory symptoms sub-total score as compared with the placebo group (SARS-CoV-2 [2]; 375/125 mg group (p=0.0153) and 750/250 mg group (p=0.0032)): a significant improving effect was observed
- Change up to 120 hours in total score of 12 COVID-19 symptoms per unit time as compared with the placebo group (SARS-CoV-2 [2]; 375/125 mg group and 750/250 mg group): a numerical decrease tendency was observed as compared with the placebo group, but a statistically significant difference was not observed
- Change from baseline up to 120 hours in sub-total score per unit time, acute symptoms: Adjusted mean value by covariance analysis (standard error) (SARS-CoV-2 [2]; [3]): −2.36 (0.10)
- Change from baseline up to 120 hours in sub-total score per unit time, acute symptoms: Difference of adjusted mean value from that of placebo group (standard error) (SARS-CoV-2 [2]; [3]): −0.20 (0.12)
- Change from baseline up to 120 hours in sub-total score per unit time, acute symptoms: Maximum value (SARS-CoV-2 [2]; [3]): 0.45
- Change from baseline up to 120 hours in sub-total score per unit time, acute symptoms: Mean value (SARS-CoV-2 [2]; [3]): −2.52
- Change from baseline up to 120 hours in sub-total score per unit time, acute symptoms: Median value (SARS-CoV-2 [2]; [3]): −2.55
- Change from baseline up to 120 hours in sub-total score per unit time, acute symptoms: Minimum value (SARS-CoV-2 [2]; [3]): −6.19
- Change from baseline up to 120 hours in sub-total score per unit time, gastrointestinal symptoms: Adjusted mean value by covariance analysis (standard error) (SARS-CoV-2 [2]; [3]): −1.27 (0.14)
- Change from baseline up to 120 hours in sub-total score per unit time, gastrointestinal symptoms: Difference of adjusted mean value from that of placebo group (standard error) (SARS-CoV-2 [2]; [3]): 0.06 (0.18)
- Change from baseline up to 120 hours in sub-total score per unit time, gastrointestinal symptoms: Maximum value (SARS-CoV-2 [2]; [3]): −0.16
- Change from baseline up to 120 hours in sub-total score per unit time, gastrointestinal symptoms: Mean value (SARS-CoV-2 [2]; [3]): −1.39
- Change from baseline up to 120 hours in sub-total score per unit time, gastrointestinal symptoms: Median value (SARS-CoV-2 [2]; [3]): −0.99
- Change from baseline up to 120 hours in sub-total score per unit time, gastrointestinal symptoms: Minimum value (SARS-CoV-2 [2]; [3]): −5.80
- Change from baseline up to 120 hours in sub-total score per unit time, major clinical symptoms: Adjusted mean value by covariance analysis (standard error) (SARS-CoV-2 [2]; [3]): −3.34 (0.14)
- Change from baseline up to 120 hours in sub-total score per unit time, major clinical symptoms: Difference of adjusted mean value from that of placebo group (standard error) (SARS-CoV-2 [2]; [3]): −0.34 (0.17)
- Change from baseline up to 120 hours in sub-total score per unit time, major clinical symptoms: Maximum value (SARS-CoV-2 [2]; [3]): 0.55
- Change from baseline up to 120 hours in sub-total score per unit time, major clinical symptoms: Mean value (SARS-CoV-2 [2]; [3]): −3.56
- Change from baseline up to 120 hours in sub-total score per unit time, major clinical symptoms: Median value (SARS-CoV-2 [2]; [3]): −3.33
- Change from baseline up to 120 hours in sub-total score per unit time, major clinical symptoms: Minimum value (SARS-CoV-2 [2]; [3]): −9.76
- Change from baseline up to 120 hours in sub-total score per unit time, respiratory symptoms: Adjusted mean value by covariance analysis (standard error) (SARS-CoV-2 [2]; [3]): −2.09 (0.12)
- Change from baseline up to 120 hours in sub-total score per unit time, respiratory symptoms: Difference of adjusted mean value from that of placebo group (standard error) (SARS-CoV-2 [2]; [3]): −0.37 (0.15)
- Change from baseline up to 120 hours in sub-total score per unit time, respiratory symptoms: Maximum value (SARS-CoV-2 [2]; [3]): 1.30
- Change from baseline up to 120 hours in sub-total score per unit time, respiratory symptoms: Mean value (SARS-CoV-2 [2]; [3]): −2.28
- Change from baseline up to 120 hours in sub-total score per unit time, respiratory symptoms: Median value (SARS-CoV-2 [2]; [3]): −1.99
- Change from baseline up to 120 hours in sub-total score per unit time, respiratory symptoms: Minimum value (SARS-CoV-2 [2]; [3]): −6.44
- Change from baseline up to 120 hours in sub-total score per unit time, systemic symptoms: Adjusted mean value by covariance analysis (standard error) (SARS-CoV-2 [2]; [3]): −3.31 (0.14)
- Change from baseline up to 120 hours in sub-total score per unit time, systemic symptoms: Difference of adjusted mean value from that of placebo group (standard error) (SARS-CoV-2 [2]; [3]): 0.15 (0.18)
- Change from baseline up to 120 hours in sub-total score per unit time, systemic symptoms: Maximum value (SARS-CoV-2 [2]; [3]): 1.80
- Change from baseline up to 120 hours in sub-total score per unit time, systemic symptoms: Mean value (SARS-CoV-2 [2]; [3]): −3.71
- Change from baseline up to 120 hours in sub-total score per unit time, systemic symptoms: Median value (SARS-CoV-2 [2]; [3]): −3.18
- Change from baseline up to 120 hours in sub-total score per unit time, systemic symptoms: Minimum value (SARS-CoV-2 [2]; [3]): −14.30
- Change from baseline up to 120 hours in sub-total score per unit time, acute symptoms: Adjusted mean value by covariance analysis (standard error) (SARS-CoV-2 [2]; [4]): −2.50 (0.10)
- Change from baseline up to 120 hours in sub-total score per unit time, acute symptoms: Difference of adjusted mean value from that of placebo group (standard error) (SARS-CoV-2 [2]; [4]): −0.33 (0.12)
- Change from baseline up to 120 hours in sub-total score per unit time, acute symptoms: Maximum value (SARS-CoV-2 [2]; [4]): 0.52
- Change from baseline up to 120 hours in sub-total score per unit time, acute symptoms: Mean value (SARS-CoV-2 [2]; [4]): −2.63
- Change from baseline up to 120 hours in sub-total score per unit time, acute symptoms: Median value (SARS-CoV-2 [2]; [4]): −2.71
- Change from baseline up to 120 hours in sub-total score per unit time, acute symptoms: Minimum value (SARS-CoV-2 [2]; [4]): −6.93
- Change from baseline up to 120 hours in sub-total score per unit time, gastrointestinal symptoms: Adjusted mean value by covariance analysis (standard error) (SARS-CoV-2 [2]; [4]): −1.08 (0.14)
- Change from baseline up to 120 hours in sub-total score per unit time, gastrointestinal symptoms: Difference of adjusted mean value from that of placebo group (standard error) (SARS-CoV-2 [2]; [4]): 0.25 (0.18)

Source: US20250099474A1 (priority 2022, published 2025)
